Measurements taken from patent US8816092B2, “Indazole derivative or salt thereof and production intermediate thereof, and antioxidant using same, and use of indazole derivative or salt thereof” (Ube Industries, Ltd., priority 2010, dated 2014).
Counter-ions that a name gives are not always drawn.

System: rat liver microsome lipid peroxidation
Experiment: Antioxidation action test in rat liver microsome (microsome lipid peroxidation measuring system, TBARS generation)
Assay type: biochemical
Conditions: for antioxidation action: microsome lipid peroxidation measuring system using a rat liver microsome, result in words; for IC50: rat liver microsome, NADPH 500 μM + ferrous sulfate 50 μM, 20 minutes reaction, 37° C., n=2, nonlinear regression, read-out: IC50 (TBARS generation suppressing action)
Description: 1. Antioxidation Action Test in Rat Liver Microsome
Using a microsome lipid peroxidation measuring system, an antioxidation action of a test compound was evaluated. This test quantifies a thiobarbituric acid reaction substance (TBARS) that is generated by a lipid peroxidation reaction caused by adding nicotinamide adenine dinucleotide phosphoric acid and ferrous sulfate to a microsome. To this system, a test compound is added, and a TBARS generation suppressing action by the test compound is evaluated as an antioxidation action. This method is a general method for measuring an antioxidation action of a compound or the like (Reference document: Yakugaku Zasshi 119, 93-99 (1999), Biochimica et Biophysics Acta, 1046, (1990) 207-213, Chemistry & Biology Experiment line 2, lipid peroxidation experimental method (Hirokawa shoten)).
A buffer solution was prepared by mingling to achieve 25 mM tris(hydroxymethyl)aminomethane (Tris) (pH 7.4) and 150 mM potassium chloride (KCl).
Ferrous sulfate (FeSO4.7H2O) was dissolved in distilled water to prepare a 5 mM solution.
Nicotinamide adenine dinucleotide phosphoric acid (NADPH) was dissolved in distilled water to prepare a 50 mM solution.
Ethylenediaminetetraacetic acid (EDTA) was dissolved in distilled water to prepare a 200 mM solution.
Five μL of a commercially available rat liver microsome [XENOTECH, catalog No. R1000 (20 mg protein/mL)] was used.
As a test compound, Compound A which is an inventive compound [1-[6-(4-cyclopropyl-1H-indazol-5-yl)pyridin-3-yl]-1-ethylenepropylamine hydrochloride (Example compound 2)], and Compound B having a similar compound structure [1-[6-(4-cyclopropyl-1H-indazol-5-yl)pyridin-3-yl]-1-methyl ethyl amine hydrochloride (synthesized according to a method described in European Patent Publication No. 1679308)] were used. Ten mM test compound solutions were prepared by dissolving 1.3 mg of Compound A in 0.315 mL of dimethyl sulfoxide (DMSO), and dissolving 2.15 mg of Compound B in 0.554 mL of dimethyl sulfoxide (DMSO).
[drawing 8] (Evaluation Method) 1) A test compound solution (5 μL) was put into a reaction tube. […] 7) A thiobarbituric acid reaction substance (TBARS) generation value in the reaction completed solution was measured using a commercially available TBARS measuring kit [Cayman, Catalog No. 10009055].
As a non-lipid peroxidation reaction group, a test was conducted by adding distilled water in place of nicotinamide adenine dinucleotide phosphoric acid and ferrous sulfate, and a TBARS generation value was measured. The number of examples of each group is n=2, and the TBARS generation suppressing rate (%) was calculated from an average value of n=2 according to the following formula 1, and IC50 of the test compound was measured by nonlinear regression of statistical analysis software (EXSAS). […]

Question: For `CCC(N)(CC)c1ccc(-c2ccc3[nH]ncc3c2C2CC2)nc1` [Compound A, 1-[6-(4-cyclopropyl-1H-indazol-5-yl)pyridin-3-yl]-1-ethylpropylamine hydrochloride], which antioxidation action is on record?
Answer: exhibited a strong antioxidation action

Question: And the IC50?
Answer: 3.8 µM

Question: With `CC(C)(N)c1ccc(-c2ccc3[nH]ncc3c2C2CC2)nc1` [Compound B, 1-[6-(4-cyclopropyl-1H-indazol-5-yl)pyridin-3-yl]-1-methyl ethyl amine hydrochloride] as the compound, how does the antioxidation action read?
Answer: did not exhibit a strong antioxidation action

Question: And the IC50?
Answer: > 100 µM
